According to ChEMBL document CHEMBL1201862, “PubChem BioAssay data set” (2004):
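Cultured in 96-well plates, cells were exposed to test compound for 48 hours across five concentrations. GI50 = concentration required for 50% inhibition of growth.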 Calls of active or inactive are those of the source. Cut-off read from the data, not from the text of the source: active = GI50 up to about 1.1 µM and inactive = higher.

Tests used:
Experiment in all cases: NCI anticancer screen, dose series, 48 h
786-0 = test system: 786-0
TK-10 = test system: TK-10
ACHN = test system: ACHN
OVCAR-5 = test system: OVCAR-5
SF-539 = test system: SF-539
NCI-H522 = test system: NCI-H522
NCI-H226 = test system: NCI-H226
HCT-116 = test system: HCT-116
KM12 = test system: KM12
U-251 = test system: U-251
SK-MEL-28 = test system: SK-MEL-28
SK-MEL-5 = test system: SK-MEL-5
RPMI-8226 = test system: RPMI-8226
CCRF-CEM = test system: CCRF-CEM
LOX IMVI = test system: LOX IMVI
HOP-62 = test system: HOP-62
SF-268 = test system: SF-268

Measured: GI50

COc1ccc(C(=O)/C(=N/Nc2ccccc2)c2ccc(OC)cc2)cc1
inactive: 786-0 > 100 µM | TK-10 > 100 µM | ACHN 33.9 µM | OVCAR-5 > 100 µM | SF-539 > 100 µM | NCI-H522 80.4 µM | NCI-H226 > 100 µM | HCT-116 > 100 µM | KM12 10.6 µM | U-251 > 100 µM | SK-MEL-28 > 100 µM | SK-MEL-5 > 100 µM | RPMI-8226 51.4 µM

O=[N+]([O-])C(/C=N/Nc1ccccc1)/C=N/Nc1ccccc1
inactive: 786-0 > 100 µM | TK-10 > 100 µM | ACHN > 100 µM | OVCAR-5 > 100 µM | SF-539 > 100 µM | NCI-H522 > 100 µM | CCRF-CEM > 100 µM | NCI-H226 > 100 µM | HCT-116 > 100 µM | KM12 > 100 µM | U-251 > 100 µM | LOX IMVI > 100 µM | HOP-62 > 100 µM | SK-MEL-28 > 100 µM | SK-MEL-5 > 100 µM | SF-268 > 100 µM

COc1ccc(CNC2=C(NC(C)=O)C(=O)c3ccccc3C2=O)cc1
inactive: 786-0 24.4 µM | TK-10 10.6 µM | ACHN 2.07 µM | SF-539 7.43 µM | NCI-H522 1.37 µM | CCRF-CEM 8.73 µM | NCI-H226 12.6 µM | HCT-116 5.09 µM | KM12 23 µM | U-251 12.4 µM | LOX IMVI 8.51 µM | HOP-62 > 50 µM | SK-MEL-28 18.3 µM | SK-MEL-5 7.48 µM | SF-268 18.9 µM

Cc1ccc(S(=O)OCc2c(C)c(C)c(COS(=O)c3ccc(C)cc3)c(C)c2C)cc1 (stereo not given)
inactive: 786-0 > 100 µM | TK-10 > 100 µM | ACHN > 100 µM | OVCAR-5 > 100 µM | SF-539 > 100 µM | NCI-H522 > 100 µM | NCI-H226 > 100 µM | HCT-116 > 100 µM | KM12 > 100 µM | U-251 > 100 µM | LOX IMVI > 100 µM | HOP-62 > 100 µM | SK-MEL-28 > 100 µM | SK-MEL-5 > 100 µM | SF-268 > 100 µM | RPMI-8226 > 100 µM

CNC(=O)CN(CC(=O)O)C(=O)NC
inactive: 786-0 > 100 µM | TK-10 > 100 µM | ACHN > 100 µM | OVCAR-5 > 100 µM | SF-539 > 100 µM | NCI-H522 > 100 µM | CCRF-CEM > 100 µM | KM12 > 100 µM | U-251 > 100 µM | LOX IMVI > 100 µM | HOP-62 > 100 µM | SK-MEL-5 > 100 µM | SF-268 > 100 µM | RPMI-8226 > 100 µM

COc1ccc(C2C(Cl)C(=O)N2n2cnc3ccccc3c2=O)cc1OC (stereo not given)
inactive: 786-0 > 100 µM | TK-10 > 100 µM | ACHN > 100 µM | OVCAR-5 > 100 µM | NCI-H522 57.9 µM | CCRF-CEM > 10 µM | NCI-H226 30.5 µM | HCT-116 53 µM | KM12 > 100 µM | U-251 > 100 µM | LOX IMVI > 100 µM | HOP-62 > 100 µM | SK-MEL-28 68.7 µM | SK-MEL-5 > 100 µM | SF-268 85.7 µM | RPMI-8226 81.1 µM

C[P+](C)(CC(F)(F)F)c1ccccc1
inactive: 786-0 > 100 µM | TK-10 > 100 µM | ACHN > 100 µM | OVCAR-5 > 100 µM | SF-539 > 100 µM | NCI-H522 > 100 µM | CCRF-CEM > 100 µM | NCI-H226 > 100 µM | HCT-116 > 100 µM | KM12 > 100 µM | U-251 > 100 µM | LOX IMVI > 100 µM | HOP-62 > 100 µM | SK-MEL-5 > 100 µM | RPMI-8226 > 100 µM

N#CCN1CCOCCOCCN(CC#N)CCOCCOCC1
inactive: 786-0 > 100 µM | TK-10 > 100 µM | ACHN > 100 µM | OVCAR-5 > 100 µM | SF-539 > 100 µM | CCRF-CEM > 100 µM | NCI-H226 > 100 µM | HCT-116 > 100 µM | LOX IMVI > 100 µM | HOP-62 > 100 µM | SK-MEL-28 > 100 µM | SK-MEL-5 > 100 µM | SF-268 > 100 µM | RPMI-8226 > 100 µM

COc1cc2c(cc1OC)c1c(OC)c(OC)cc3c1c1c2sc(=S)n1CC3
inactive: 786-0 18.1 µM | TK-10 > 100 µM | ACHN > 100 µM | OVCAR-5 > 100 µM | SF-539 48.3 µM | NCI-H522 17.4 µM | CCRF-CEM 24.5 µM | NCI-H226 > 100 µM | HCT-116 97.9 µM | KM12 55.8 µM | U-251 66.5 µM | LOX IMVI 31.5 µM | SK-MEL-28 46.9 µM | SK-MEL-5 41.5 µM | SF-268 28.7 µM | RPMI-8226 32.1 µM

C#CC1/C(=C\C(=O)OC)CCCC1O (stereo not given)
inactive: 786-0 > 100 µM | TK-10 > 100 µM | ACHN > 100 µM | OVCAR-5 > 100 µM | SF-539 > 100 µM | NCI-H522 > 100 µM | CCRF-CEM > 100 µM | NCI-H226 > 100 µM | HCT-116 > 100 µM | KM12 > 100 µM | U-251 > 100 µM | HOP-62 > 100 µM | SK-MEL-5 > 100 µM | SF-268 > 100 µM | RPMI-8226 > 100 µM

CC(=O)Oc1cc2c(cc1OC(C)=O)C1(C)CCC2(C)c2cc(OC(C)=O)c(OC(C)=O)cc21
inactive: 786-0 15 µM | TK-10 26.5 µM | ACHN 26.1 µM | OVCAR-5 28.4 µM | NCI-H522 2.24 µM | CCRF-CEM 2.87 µM | KM12 11.6 µM | LOX IMVI 12.6 µM | HOP-62 21.6 µM | SK-MEL-28 21.4 µM | SK-MEL-5 22.6 µM | SF-268 19.2 µM | RPMI-8226 3.52 µM

CC(C)N1CN(C(C(=O)N[C@@H]2C(=O)N3C2SC(C)(C)C3C(=O)O)c2ccccc2)CSC1=S (stereo not given in full)
inactive: 786-0 > 100 µM | TK-10 > 100 µM | ACHN > 100 µM | OVCAR-5 > 100 µM | SF-539 > 100 µM | NCI-H522 27.8 µM | CCRF-CEM > 100 µM | HCT-116 > 100 µM | KM12 > 100 µM | U-251 > 100 µM | LOX IMVI 83.9 µM | HOP-62 > 100 µM | SK-MEL-28 > 100 µM | SK-MEL-5 > 100 µM | SF-268 > 100 µM | RPMI-8226 69.5 µM

COc1ccc2n[se]nc2c1
inactive: 786-0 48.3 µM | TK-10 70.6 µM | ACHN > 100 µM | OVCAR-5 > 100 µM | SF-539 23.1 µM | NCI-H522 > 100 µM | CCRF-CEM > 100 µM | KM12 56.4 µM | U-251 > 100 µM | LOX IMVI > 100 µM | SK-MEL-28 > 100 µM | SK-MEL-5 50.1 µM | SF-268 > 100 µM | RPMI-8226 > 100 µM

CCC(=O)C12OC3OC(C)(C)OC3C1OC(C)(C)O2 (stereo not given)
inactive: 786-0 > 100 µM | TK-10 > 100 µM | ACHN > 100 µM | OVCAR-5 > 100 µM | SF-539 > 100 µM | NCI-H522 > 100 µM | CCRF-CEM > 100 µM | NCI-H226 > 100 µM | HCT-116 > 100 µM | KM12 > 100 µM | U-251 > 100 µM | HOP-62 > 100 µM | SK-MEL-28 > 100 µM | SK-MEL-5 > 10 µM | SF-268 > 100 µM

O=C1CCCC1NC(=O)C(F)(F)F (stereo not given)
inactive: 786-0 > 100 µM | TK-10 > 100 µM | ACHN > 100 µM | OVCAR-5 > 100 µM | SF-539 > 100 µM | NCI-H522 > 100 µM | CCRF-CEM > 100 µM | NCI-H226 > 100 µM | HCT-116 > 100 µM | KM12 > 100 µM | U-251 > 100 µM | HOP-62 > 100 µM | SK-MEL-28 > 100 µM | SK-MEL-5 > 100 µM | SF-268 > 100 µM

O=C(O)CN(c1ccccc1)S(=O)(=O)c1ccccc1[N+](=O)[O-]
inactive: 786-0 > 100 µM | TK-10 > 100 µM | ACHN > 100 µM | OVCAR-5 > 100 µM | SF-539 > 100 µM | NCI-H522 > 100 µM | CCRF-CEM > 100 µM | NCI-H226 > 100 µM | KM12 > 100 µM | U-251 > 100 µM | LOX IMVI > 100 µM | SK-MEL-28 > 100 µM | SK-MEL-5 > 100 µM | SF-268 > 100 µM | RPMI-8226 > 100 µM

COc1cccc(/C=C2\CCC(CCN(C)C)(C3=CCCC3)C2=O)c1 (stereo not given)
inactive: 786-0 14.7 µM | TK-10 15.8 µM | ACHN 16.7 µM | OVCAR-5 14.6 µM | SF-539 16.1 µM | NCI-H522 13.4 µM | CCRF-CEM 19.1 µM | NCI-H226 17.1 µM | HCT-116 13.8 µM | KM12 17.2 µM | U-251 16.6 µM | LOX IMVI 15.6 µM | HOP-62 17.2 µM | SK-MEL-28 15.9 µM | SK-MEL-5 17.7 µM | SF-268 21.3 µM | RPMI-8226 11.7 µM

CN1CCN(CN2C(=O)C3C4C=CC(C3C2=O)C2C3C(=O)N(CN5CCN(C)CC5)C(=O)C3C42)CC1 (stereo not given)
inactive: 786-0 18.2 µM | TK-10 38 µM | ACHN 28.2 µM | OVCAR-5 30.8 µM | SF-539 22.2 µM | CCRF-CEM 29.2 µM | HCT-116 16.5 µM | KM12 20.1 µM | U-251 20.8 µM | LOX IMVI 17.9 µM | HOP-62 70 µM | SK-MEL-28 23.5 µM | SK-MEL-5 17 µM | SF-268 25.3 µM | RPMI-8226 24.7 µM
